The values that follow come from patent US5073563A, “Alkoxycoumarins substituted by a heterocyclic radical, their preparation and therapeutic agents containing these compounds” (BASF Aktiengesellschaft, priority 1988, dated 1991).

The conditions of test [1]: literature test; cited from earlier work.
For test [2] the following is noted: literature test; cited from earlier work. This is another data set of the same source.
Test [3] has as its target T1, MAO B (Rattus norvegicus, UniProt P19643).
T1 construct: determined in dilute rat brain homogenate; from tissue; host or cells: rat brain homogenate
T1 sequence (P19643 1-520): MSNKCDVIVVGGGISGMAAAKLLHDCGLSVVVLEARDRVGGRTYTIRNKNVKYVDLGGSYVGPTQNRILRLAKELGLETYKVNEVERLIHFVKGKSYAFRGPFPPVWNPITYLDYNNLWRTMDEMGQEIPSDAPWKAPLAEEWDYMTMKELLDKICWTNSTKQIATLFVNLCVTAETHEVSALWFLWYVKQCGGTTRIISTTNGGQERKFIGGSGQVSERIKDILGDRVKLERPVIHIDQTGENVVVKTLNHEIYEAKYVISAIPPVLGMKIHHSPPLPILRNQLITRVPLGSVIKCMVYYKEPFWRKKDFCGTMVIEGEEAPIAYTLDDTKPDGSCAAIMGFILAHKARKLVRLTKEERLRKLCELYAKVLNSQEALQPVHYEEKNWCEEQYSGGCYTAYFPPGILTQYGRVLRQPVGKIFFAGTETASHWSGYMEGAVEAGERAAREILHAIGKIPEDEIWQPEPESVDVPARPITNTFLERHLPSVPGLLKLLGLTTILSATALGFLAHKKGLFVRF
Description: MAO B inhibition in dilute rat brain homogenate (14C substrate, 20 min at 37° C). Conditions: for IC50 ratio MAO A / MAO B: quotient of IC50 MAO A and IC50 MAO B (selectivity for MAO B), 20 min; for pIC50: rat brain homogenate, 14C-phenylethylamine or 14C-tryptamine 0.4 μmol/l, 20 minutes at 37° C, logit-log regression. It counts as biochemical. The method, then:
(§1) The MAO-inhibiting activity of the novel compounds can be determined using standard methods. […] The mixture was incubated for 20 minutes at 37° C.
(§2) The blank value was determined in similar mixtures with an incubation time of t=0 min.
(§3) From the inhibitory values determined at the various inhibitor concentrations against a control, the mean inhibitory concentration (IC50) was calculated by linear regression following logit-log transformation.

Test [4] has as its target T2, MAO A (Rattus norvegicus, UniProt P21396).
T2 construct: determined in dilute rat brain homogenate; from tissue; host or cells: rat brain homogenate
T2 sequence (P21396 1-526): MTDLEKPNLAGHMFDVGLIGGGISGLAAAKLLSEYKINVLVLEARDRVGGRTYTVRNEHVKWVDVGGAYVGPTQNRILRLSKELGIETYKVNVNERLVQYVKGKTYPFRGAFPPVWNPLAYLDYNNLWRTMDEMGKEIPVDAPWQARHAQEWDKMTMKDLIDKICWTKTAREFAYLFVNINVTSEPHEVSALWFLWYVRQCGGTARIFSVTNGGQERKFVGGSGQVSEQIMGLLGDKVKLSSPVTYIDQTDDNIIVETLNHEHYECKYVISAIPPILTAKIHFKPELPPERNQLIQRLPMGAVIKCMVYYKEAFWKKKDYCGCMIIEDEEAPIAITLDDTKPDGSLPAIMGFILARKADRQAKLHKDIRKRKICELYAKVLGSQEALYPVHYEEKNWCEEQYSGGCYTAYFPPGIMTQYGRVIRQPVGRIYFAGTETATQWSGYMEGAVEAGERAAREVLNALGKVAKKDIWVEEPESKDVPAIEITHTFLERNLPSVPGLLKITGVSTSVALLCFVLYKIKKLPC
Description: MAO A inhibition in dilute rat brain homogenate (14C substrate, 20 min at 37° C). It counts as biochemical. To be noted: 14C-phenylethylamine or 14C-tryptamine 0.4 μmol/l, logit-log regression. The method, then: as §1, §2, §3

The structures appear in SMILES notation. pIC50: −log10 of the molar value. Counter-ions that a name gives are not always drawn.

Turning to `Cc1cc(=O)oc2cc(OCc3cc(-c4ccccc4)no3)ccc12` [4-methyl-7-(3-phenylisoxazol-5-yl-methoxy)-coumarin], the fungicidal action entry in test [1] was “little or no success”. The bacteriostatic action result in test [2] was “little or no success”.

In general, pIC50 refers to −log10 of the IC50, conventionally taken in molar units. Lower therefore signals a large IC50. For `Cc1c(C)c2ccc(OCc3cc(C4CC4)n(C)n3)cc2oc1=O` [Example 61, 7-(5-Cyclopropyl-1-methylpyrazol-3-yl)-methoxy-3,4-dimethylcoumarin], in test [3], the “IC50 ratio MAO A / MAO B” value is more than 1100 and the negative logarithm of the IC50 (pIC50) was 8.72. In test [4], the pIC50 is less than 5.00.

On to `CCOc1nnc(COc2ccc3c(C)c(C)c(=O)oc3c2)s1` [Example 62, 7-(2-Ethoxy-1,3,4-thiadiazol-5-yl)-methoxy-3,4-dimethylcoumarin], for which, in test [3], the “IC50 ratio MAO A / MAO B” value is more than 1300 and the pIC50 is 8.12. Moreover, the negative logarithm of the IC50 (pIC50) in test [4] is less than 5.00.

For the compound `Cc1nnc(COc2cc3oc(=O)c(C)c(C)c3cc2Br)s1` [Example 67, 6-Bromo-3,4-dimethyl-7-(2methyl-1,3,4-thiadiazol-5-yl)-methoxycoumarin], in test [3], the “IC50 ratio MAO A / MAO B” value is recorded as more than 9100 and the pIC50 is 8.96. In addition, the negative-log IC50 (pIC50) in test [4] is less than 5.00.

With `Cc1c(C)c2ccc(OCc3cc(C4CCC4)no3)cc2oc1=O` [Example 68, 7-(3-Cyclobutylisoxazol-5-yl)-methoxy-3,4-dimethylcoumarin], in test [3], the “IC50 ratio MAO A / MAO B” value is listed as more than 13000 and the pIC50 is 9.11. In test [4], this compound showed a pIC50 of less than 5.00.

Turning to `Cc1c(C)c2ccc(OCc3ncnn3C(C)C)cc2oc1=O` [Example 70, 7-(1-Isopropyl-1,2,4-triazol-5-yl)-methoxy-3,4-dimethylcoumarin hydrochloride], in test [3], the “IC50 ratio MAO A / MAO B” value is reported as more than 770 and the negative logarithm of the IC50 (pIC50) was 7.89. The same compound had a pIC50 in test [4] of less than 5.00.

For `Cc1c(C)c2ccc(OCc3cc(C(C)C)nn3C)cc2oc1=O` [Example 72, 7-(3-Isopropyl-1-methylpyrazol-5-yl)-methoxy-3,4-dimethylcoumarin], in test [3], the “IC50 ratio MAO A / MAO B” value was ~ 2000 and the pIC50 was 8.31. The negative logarithm of the IC50 (pIC50) in test [4] was approximately 5.00.

Regarding `Cc1c(C)c2ccc(OCc3cc(C)n(C)n3)cc2oc1=O` [Example 73, 3,4-Dimethyl-7-(1,5-dimethylpyrazol-3-yl)-methoxycoumarin], in test [3], the “IC50 ratio MAO A / MAO B” value is more than 700 and the negative logarithm of the IC50 (pIC50) was 7.85. This compound also gave a negative-log IC50 (pIC50) in test [4] of less than 5.00.

With `Cc1c(C)c2ccc(OCc3csc(Cc4ccccc4)n3)cc2oc1=O` [Example 74, 7-(2-Benzylthiazol-4-yl)-methoxy-3,4-dimethylcoumarin], the “IC50 ratio MAO A / MAO B” value in test [3] is 580. Also, the pIC50 in test [3] is 8.26; in test [4] it was 5.49.

As to `Cc1c(C)c2ccc(OCc3csc(C(C)C)n3)cc2oc1=O` [Example 75, 7-(2-Isopropylthiazol-4-yl)-methoxy-3,4-dimethylcoumarin], the “IC50 ratio MAO A / MAO B” value in test [3] is on record as ~ 7000. Moreover, in test [4], the pIC50 was approximately 5.00.

Take `Cc1c(C)c2ccc(OCc3cc(C4CCCC4)no3)cc2oc1=O` [Example 78, 7-(3-Cyclopentylisoxazol-5-yl)-methoxy-3,4-dimethylcoumarin]: in test [3], the “IC50 ratio MAO A / MAO B” value is on record as more than 7700. The pIC50 in test [3] is 8.89; in test [4] it was less than 5.00.

Regarding `COC(C)c1cc(COc2ccc3c(C)c(C)c(=O)oc3c2)on1` (stereo not shown) [Example 79, 7-[3-(1-Methoxyethyl)-isoxazol-5-yl]-methoxy-3,4-dimethylcoumarin], in test [3], the “IC50 ratio MAO A / MAO B” value amounted to 2400 and the pIC50 was 8.92. The pIC50 in test [4] was 5.54.

For the compound `Cc1c(C)c2ccc(OCc3csc(C4CC4)n3)cc2oc1=O` [Example 80, 7-(2-Cyclopropylthiazol-4-yl)-methoxy-3,4-dimethylcoumarin], in test [3], the “IC50 ratio MAO A / MAO B” value is ~ 7100 and the pIC50 is 8.85. In test [4], this compound showed a pIC50 of approximately 5.00.

In the case of `CCc1cc2c(C)c(C)c(=O)oc2cc1OCc1cc(C(C)C)n(C)n1` [Example 84, 6-Ethyl-7-(5-isopropyl-1-methylpyrazol-3-yl)-methoxy-3,4-dimethylcoumarin], in test [3], the “IC50 ratio MAO A / MAO B” value was more than 1100 and the negative-log IC50 (pIC50) is 8.04. In test [4], the negative-log IC50 (pIC50) was less than 5.00.

On to `CCc1cc2c(C)c(C)c(=O)oc2cc1OCc1nnc(C)s1` [Example 85, 6-Ethyl-3,4-dimethyl-7-(2-methyl-1,3,4-thiadiazol-5-yl)-methoxycoumarin], for which, in test [3], the “IC50 ratio MAO A / MAO B” value is reported as more than 1700 and the negative-log IC50 (pIC50) was 8.16. Besides, in test [4], the pIC50 was less than 5.00.

On to `Cc1c(C)c2ccc(OCc3cc(C4CCCCC4)no3)cc2oc1=O` [Example 87, 7-(3-Cyclohexylisoxazol-5-yl)-methoxy-3,4-dimethylcoumarin], for which, in test [3], the “IC50 ratio MAO A / MAO B” value is recorded as more than 700 and the pIC50 is 7.85. In test [4], this compound had a pIC50 of less than 5.00.

Take `Cc1c(C)c2ccc(OCc3ccc(C(C)(C)C)s3)cc2oc1=O` [Example 92, 7-(2-tert-Butylthiophen-5-yl)-methoxy-3,4-dimethylcoumarin]: in test [3], the “IC50 ratio MAO A / MAO B” value is reported as more than 1000. The results for the pIC50 in test [3] and in test [4] were approximately 8.00 and less than 5.00, respectively.

`Cc1c(C)c2ccc(OCc3nnc(C4CC4)s3)cc2oc1=O` [Example 94, 3,4-Dimethyl-7-(2-cyclopropyl-1,3,4-thiadiazol-5yl)-methoxycoumarin]: in test [3], the “IC50 ratio MAO A / MAO B” value is listed as ~ 8300. Moreover, the pIC50 in test [3] is 8.92; in test [4] it was approximately 5.00.

As for `Cc1c(C)c2ccc(OCc3cc(C4(C)CC4)no3)cc2oc1=O` [Example 96], in test [3], the “IC50 ratio MAO A / MAO B” value was ~ 32000. Also, the pIC50 in test [3] is 9.21; in test [4], approximately 4.70.

With `Cc1c(C)c2ccc(OCc3cc(C4CCOC4)no3)cc2oc1=O` (stereo not shown) [Example 97, 3,4-Dimethyl-7-[3-(tetrahydrofuran-3-yl)-isoxazol-5-yl]-methoxycoumarin], the “IC50 ratio MAO A / MAO B” value in test [3] was ~ 1400. The pIC50 in test [3] was 8.44; in test [4] it was approximately 5.30.

Take `Cc1c(C)c2ccc(OCc3nc(C4CCCC4)no3)cc2oc1=O` [Example 98]: in test [3], the “IC50 ratio MAO A / MAO B” value was more than 11000. In addition, the figures for the pIC50 in test [3] and in test [4] were 9.04 and less than 5.00, respectively.

On to `Cc1c(C)c2ccc(OCc3cc(C4CCCCC4)no3)cc2oc1=O` [Example 99, 3,4-Dimethyl-7-(3-cyclohexylisoxazol-5-yl)-methoxycoumarin], for which the “IC50 ratio MAO A / MAO B” value in test [3] is reported as more than 1200. In addition, the results for the negative-log IC50 (pIC50) in test [3] and in test [4] were 8.09 and less than 5.00, respectively.

As for `Cc1c(C)c2cc(Cl)c(OCc3ccccn3)cc2oc1=O` [Example 100, 6-Chloro-3,4-dimethyl-7-(2-pyridinyl)-methoxycoumarin], the “IC50 ratio MAO A / MAO B” value in test [3] was more than 13000. Moreover, the negative-log IC50 (pIC50) is 9.13 in test [3] and less than 5.00 in test [4].

Take `Cc1nnc(COc2cc3oc(=O)c(Cl)c(C)c3cc2Cl)s1` [Example 101, 3,6-Dichloro-4-methyl-7-(5-methyl-1,3,4-thiadiazol-2-yl)-methoxycoumarin]: in test [3], the “IC50 ratio MAO A / MAO B” value is more than 10000 and the pIC50 was 9.00. In test [4], the negative logarithm of the IC50 (pIC50) is less than 5.00.

With `Cc1c(Cl)c(=O)oc2cc(OCc3csc(C(C)C)n3)c(Cl)cc12` [Example 103, 3,6-Dichloro-4-methyl-7-(2-isopropylthiazol-4-yl)-methoxycoumarin], in test [3], the “IC50 ratio MAO A / MAO B” value is reported as more than 5500 and the pIC50 is 8.74. The negative logarithm of the IC50 (pIC50) in test [4] was less than 5.00.
